Measurements from publication PMC7288171, “Synergistic Effects of Thiosemicarbazides with Clinical Drugs against S. aureus” (Molecules, 2020).
In brackets after ≈: the same amount, converted by molar mass.

Assays:
MTT cytotoxicity assay = type: cell-based, human; details: human, Hs27 foreskin fibroblast cells (ATCC CRL-1634), 25 µg/mL, 24 h, vehicle control = 100%
Experimental: (§1) A critical factor in research and development of new antibacterial agents is their abilities to selectively target bacterial cells without toxicity to mammalian cells. Thus, in order to test if antibacterial activity of title thiosemicarbazides is not due to their general toxicity, their effect on mammalian cell viability was assessed using human foreskin fibroblast Hs27 cells (CRL-1634) via MTT assay.
(§2) Cytotoxic properties of the compounds were evaluated using human foreskin fibroblast cells Hs27 (ATCC CRL-1634) (ATCC, Manassas, VA, USA) that were cultured in DMEM-high glucose (Sigma Aldrich, St. Louis, MO, USA). Medium was supplemented with 10% fetal bovine serum (FBS, Sigma Aldrich), 100 U/mL of penicillin, and […] of streptomycin (PenStrep, Sigma Aldrich, St. Louis, MO, USA). Cells were incubated at 37 °C in a humidified atmosphere of 5% CO2. Stock solutions of the tested compounds were prepared dissolving in a sterile dimethyl sulfoxide (DMSO) to the concentration of 50 mg/mL. The cells were seeded into 96-well sterile plates (Nunc) at a cell density of 1 × 10^5 cells/mL. After 24 h of incubation, the medium was removed from each well, and then cells were incubated for the next 24 h with tested compounds (in a fixed dose of 25 µg/mL) in DMEM-high glucose containing 2% FBS. Control cells were cultured only with medium containing 2% addition of FBS. Cytotoxicity of the compounds was evaluated using MTT assay, which is based on the conversion of 3-(4,5-dimethylthiazol-2-yl)-2,5- diphenyltetrazolium bromide (MTT) into dark-blue formazan crystals. Briefly, after 24-h incubation of cells with varying concentrations of the tested compounds, culture medium was removed from the plates. Cells were washed with PBS, and then 100 µL of medium containing 10% MTT solution (5 mg/mL) was added to each well. Cells were incubated for the next 3 h at 37 °C in an atmosphere of 5% CO2. Next, 100 µL (per well) of 10% sodium dodecyl sulfate (SDS) buffer solution was added to dissolve formazan crystals and after an overnight incubation the absorbance was measured at 570 nm using a microplate reader (Epoch, BioTek Instruments, Inc., Winooski, VT, USA).

[1] = test system: human foreskin fibroblast Hs27 cells (CRL-1634); test: MTT cytotoxicity assay; type: cell-based; details: Homo sapiens, 24 h of treatment
Experimental: as §1, §2

[2] = target: T1, S. aureus topoisomerase IV (Staphylococcus aureus, UniProt P0C1S7+P0C1U9); test: Topoisomerase IV decatenation assay; type: biochemical; details: in words; 50 and 100 µM tested (Figures S1–S3)
T1 construct: purchased Inspiralis, Norwich, UK
Experimental: Inhibition of decatenation activity of S. aureus topoisomerase IV: The assay was performed using S. aureus topoisomerase IV decatenation kits (Inspiralis, Norwich, UK). Interlinked kDNA substrate (0.5 µg) was incubated with 1 unit of topoisomerase IV (Inspiralis, Norwich, UK), in the dedicated decatenation assay buffer supplied by the manufacturer, in the presence of varying concentrations of the test compounds. Reactions were carried out at 37 °C for 1 h and then terminated by the addition of equal volume of 2 × STOP Buffer and chloroform/iso-amyl alcohol. Samples were vortexed, centrifuged, and run through a 15 cm 1% agarose gel in TAE buffer for 1.5 h at 80 V. Gels were stained with ethidium bromide and visualized under UV light.

[3] = test system: S. epidermidis ATCC 12228; parameters: method as in PMID 25897586; details: S. e. ATCC 12228; compounds 1–5; cited from earlier work
MSSA-2 = test: MIC, clinical isolate of S. aureus; type: cell-based; details: Staphylococcus aureus; clinical isolate MSSA-2; read-out: MIC
Experimental: (§3) The antibacterial activity of the thiosemicarbazides 1–9 and antibiotics (amoxicillin, gentamicin, levofloxacin, linezolid, and vancomycin) was tested on the Gram-positive strains (Microbiologics, St. Cloud, MN, USA) (S. aureus ATCC 25923, S. aureus ATCC 6538, S. epidermidis ATCC 12228, B. subtilis ATCC 6633, B. cereus ATCC 10876, M. luteus ATCC 10240), the Gram-negative strains (Microbiologics, St. Cloud, MN, USA) (E. coli ATCC 25922, K. pneumoniae ATCC 13883, P. mirabilis ATCC 12453, P. aeruginosa ATCC 9027), and clinical isolates of S. aureus (Medical University of Lublin, Lublin, Poland) (MSSA-1, MSSA-2, MSSA-3, MSSA-4, MRSA-1).

MSSA-4 = test: MIC, clinical isolate of S. aureus; type: cell-based; details: Staphylococcus aureus; clinical isolate MSSA-4; read-out: MIC
Experimental: as §3

MSSA-1 = test: MIC, clinical isolate of S. aureus; type: cell-based; details: Staphylococcus aureus; clinical isolate MSSA-1; read-out: MIC
Experimental: as §3

MSSA-3 = test: MIC, clinical isolate of S. aureus; type: cell-based; details: Staphylococcus aureus; clinical isolate MSSA-3; read-out: MIC
Experimental: as §3

MRSA-1 = test: MIC, clinical isolate of S. aureus; type: cell-based; details: Staphylococcus aureus; clinical isolate MRSA-1; read-out: MIC
Experimental: as §3

M. luteus ATCC 10240 = test system: M. luteus ATCC 10240; parameters: method as in PMID 25897586; details: M. l. ATCC 10240; compounds 1–5; cited from earlier work
S. aureus ATCC 25923 [4] = test system: S. aureus ATCC 25923; parameters: method as in PMID 25897586; details: S. a. ATCC 25923; compounds 1–5; cited from earlier work
B. subtilis ATCC 6633 = test system: B. subtilis ATCC 6633; parameters: method as in PMID 25897586; details: B. s. ATCC 6633; compounds 1–5; cited from earlier work
B. cereus ATCC 10876 = test system: B. cereus ATCC 10876; parameters: method as in PMID 25897586; details: B. c. ATCC 10876; compounds 1–5; cited from earlier work
S. aureus ATCC 6538 = test system: S. aureus ATCC 6538; parameters: method as in PMID 25897586; details: S. a. ATCC 6538; compounds 1–5; cited from earlier work
S. aureus ATCC 25923 [5] = test: Checkerboard broth dilution synergy assay; type: cell-based
Experimental: The microdilution checkerboard method was used to evaluate the synergistic effects between the thiosemicarbazides 1–9 and antibiotics, which were determined as the fractional inhibitory concentration indices (FICIs). For these experiments, amoxicillin, gentamicin, levofloxacin, linezolid, and vancomycin were selected to represent the five antimicrobial classes most commonly used in clinical practice. In this way, a total of 45 combinations of thiosemicarbazide-amoxicillin, thiosemicarbazide-gentamicin, thiosemicarbazide-levofloxacin, thiosemicarbazide-linezolid, and thiosemicarbazide-vancomycin against S. aureus ATCC 25923 were tested to identify in vitro synergy effects.
Interaction of the thiosemicarbazides 1–9 in combination with amoxicillin, gentamicin, levofloxacin, linezolid or vancomycin against S. aureus ATCC 25923 were analyzed using the checkerboard broth dilution method to determine the fractional inhibitory concentration indices (FICIs), calculated as: FIC = MIC of drug A in combination/MIC of drug A alone + MIC of drug B in combination/MIC of drug B alone. The calculated FICIs were interpreted as synergistic (FIC ≤ 0.5), additive (0.5 < FIC < 1), indifferent (1 ≤ FIC < 4.0), or antagonistic (FIC ≥ 4.0). The checkerboard assay included ciprofloxacin-carvedilol combination as positive control, whereas cefuroxime in combination with 4-(4-bromophenyl)-1-(3-fluorobezoyl)thiosemicarbazide served as negative control. The Z-factor value for the bioassay was 0.683.

T1 sequence (P0C1U9 whole entry): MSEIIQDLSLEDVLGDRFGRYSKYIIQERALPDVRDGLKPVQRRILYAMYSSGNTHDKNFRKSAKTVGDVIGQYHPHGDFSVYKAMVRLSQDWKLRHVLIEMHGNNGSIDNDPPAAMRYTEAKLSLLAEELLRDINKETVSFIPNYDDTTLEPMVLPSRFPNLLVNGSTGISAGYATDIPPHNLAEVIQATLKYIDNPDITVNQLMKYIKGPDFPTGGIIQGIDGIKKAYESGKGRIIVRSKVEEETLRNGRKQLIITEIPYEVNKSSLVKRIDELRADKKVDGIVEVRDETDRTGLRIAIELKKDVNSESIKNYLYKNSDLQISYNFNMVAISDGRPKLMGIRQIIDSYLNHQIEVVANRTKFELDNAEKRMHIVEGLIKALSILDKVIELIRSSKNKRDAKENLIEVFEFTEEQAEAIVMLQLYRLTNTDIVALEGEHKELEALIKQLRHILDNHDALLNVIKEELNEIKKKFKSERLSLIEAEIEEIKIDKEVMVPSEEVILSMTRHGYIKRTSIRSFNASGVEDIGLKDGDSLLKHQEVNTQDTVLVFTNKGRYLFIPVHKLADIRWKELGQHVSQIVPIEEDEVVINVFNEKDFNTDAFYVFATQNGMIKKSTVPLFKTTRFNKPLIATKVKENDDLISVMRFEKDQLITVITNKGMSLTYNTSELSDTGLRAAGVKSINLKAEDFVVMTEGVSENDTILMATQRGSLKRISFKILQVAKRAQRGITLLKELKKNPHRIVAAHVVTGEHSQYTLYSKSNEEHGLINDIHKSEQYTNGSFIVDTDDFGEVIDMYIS
T1 sequence (P0C1S7 whole entry): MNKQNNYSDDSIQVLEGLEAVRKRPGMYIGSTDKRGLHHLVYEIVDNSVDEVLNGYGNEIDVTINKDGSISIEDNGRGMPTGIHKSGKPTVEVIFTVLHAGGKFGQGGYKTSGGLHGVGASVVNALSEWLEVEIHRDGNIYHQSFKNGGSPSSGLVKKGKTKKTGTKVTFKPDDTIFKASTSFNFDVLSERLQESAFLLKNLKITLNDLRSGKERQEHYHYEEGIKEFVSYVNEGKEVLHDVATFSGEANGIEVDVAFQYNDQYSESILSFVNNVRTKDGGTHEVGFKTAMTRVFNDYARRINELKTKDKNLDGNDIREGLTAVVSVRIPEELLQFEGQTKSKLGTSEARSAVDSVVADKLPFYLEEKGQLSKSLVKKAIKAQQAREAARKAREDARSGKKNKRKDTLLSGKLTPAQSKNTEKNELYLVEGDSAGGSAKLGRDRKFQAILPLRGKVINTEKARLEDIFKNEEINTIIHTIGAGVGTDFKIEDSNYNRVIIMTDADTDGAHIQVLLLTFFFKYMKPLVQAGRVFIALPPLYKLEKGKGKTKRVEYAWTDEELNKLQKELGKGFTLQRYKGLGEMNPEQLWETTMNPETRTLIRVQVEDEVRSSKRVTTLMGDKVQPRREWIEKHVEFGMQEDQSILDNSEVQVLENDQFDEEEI

Row | Compound | viability at 24 h, 25 µg/mL (MTT cytotoxicity assay) | IC50 [1] | inhibitory action against topoisomerase IV [2] | MIC [3] | MIC (MSSA-2) | MIC (MSSA-4) | MIC (MSSA-1) | MIC (MSSA-3) | MIC (MRSA-1) | MIC (M. luteus ATCC 10240) | MIC (S. aureus ATCC 25923 [4]) | MIC (B. subtilis ATCC 6633) | MIC (B. cereus ATCC 10876) | MIC (S. aureus ATCC 6538) | interaction in combination (S. aureus ATCC 25923 [5]; combination with amoxicillin) | interaction in combination (S. aureus ATCC 25923 [5]; combination with gentamicin) | interaction in combination (S. aureus ATCC 25923 [5]; combination with levofloxacin) | interaction in combination (S. aureus ATCC 25923 [5]; combination with linezolid) | interaction in combination (S. aureus ATCC 25923 [5]; combination with vancomycin)
1 | Cc1ccccc1C(=O)NC(=S)NNC(=O)c1cccc(Cl)c1Cl [compound 1] | 78.5% | > 25 µg/mL | no inhibitory effects | 7.81 µg/mL (≈ 20.4 µM) | > 500 µg/mL | > 500 µg/mL | > 500 µg/mL | > 500 µg/mL | 125 µg/mL (≈ 327 µM) | 1.95 µg/mL (≈ 5.1 µM) | 15.63 µg/mL (≈ 40.9 µM) | 3.91 µg/mL (≈ 10.2 µM) | 3.91 µg/mL (≈ 10.2 µM) | 15.63 µg/mL (≈ 40.9 µM) | additive | no interactions | no interactions | additive | no interactions
2 | O=C(NC(=S)NNC(=O)c1cccc(Cl)c1Cl)c1ccccc1Cl [compound 3] | 81% | > 25 µg/mL | no inhibitory effects | 7.81 µg/mL (≈ 19.4 µM) | > 500 µg/mL | 250 µg/mL (≈ 621 µM) | > 500 µg/mL | > 500 µg/mL | 125 µg/mL (≈ 310 µM) | 0.98 µg/mL (≈ 2.43 µM) | 15.63 µg/mL (≈ 38.8 µM) | 3.91 µg/mL (≈ 9.71 µM) | 3.91 µg/mL (≈ 9.71 µM) | 15.63 µg/mL (≈ 38.8 µM) | additively | additively | additively | additively | no interaction
3 | O=C(NC(=S)NNC(=O)c1cccc(Cl)c1Cl)c1ccc(Cl)cc1 [compound 4] | 80.7% | > 25 µg/mL |  | 7.81 µg/mL (≈ 19.4 µM) | > 500 µg/mL | 500 µg/mL (≈ 1240 µM) | > 500 µg/mL | > 500 µg/mL | > 500 µg/mL | 1.95 µg/mL (≈ 4.84 µM) | 31.25 µg/mL (≈ 77.6 µM) | 0.98 µg/mL (≈ 2.43 µM) | 3.91 µg/mL (≈ 9.71 µM) | 15.63 µg/mL (≈ 38.8 µM) | additive |  | synergistic | additive | did not display any synergism nor additivity
4 | O=C(NC(=S)NNC(=O)c1cccc(Cl)c1Cl)c1ccc([N+](=O)[O-])cc1 [compound 5] | 70.9% | > 25 µg/mL |  | 1.95 µg/mL (≈ 4.72 µM) | > 500 µg/mL | 500 µg/mL (≈ 1210 µM) | > 500 µg/mL | > 500 µg/mL | 250 µg/mL (≈ 605 µM) | 0.49 µg/mL (≈ 1.19 µM) | 1.95 µg/mL (≈ 4.72 µM) | 0.98 µg/mL (≈ 2.37 µM) | 0.98 µg/mL (≈ 2.37 µM) | 1.95 µg/mL (≈ 4.72 µM) | no interactions | no interactions | no interactions | synergistically | no interactions
